Test results from article PMC12621569 (Antiviral research, 2025).

How the values were obtained:
[1] = target: A (H1N1)pdm09 neuraminidase (NA); type: biochemical, influenza A (H1N1)pdm09 virus
[2] = test system: B/Victoria neuraminidase (NA); type: biochemical, influenza B/Victoria lineage virus
A(H1N1)pdm09 viruses = type: cell-based, influenza A(H1N1)pdm09 virus
influenza A viruses = type: cell-based, influenza A virus
type A viruses = settings: cited from earlier work
A(H3N2) viruses = type: cell-based, influenza A(H3N2) virus

SMILES | IC50 Fold [1] [fold] | IC50 fold vs NA sequence-matched virus [2] [fold] | effect of substitution on inhibition of NA activity [2] | effect on baloxavir susceptibility (A(H1N1)pdm09 viruses) | change in EC50 (influenza A viruses) | elevated baloxavir EC50 in cell culture (type A viruses) | variably elevated baloxavir EC50 (type A viruses) | effect on baloxavir susceptibility (A(H3N2) viruses)
CCC(CC)[C@H](NC(C)=O)[C@@H]1[C@H](O)[C@@H](C(=O)O)C[C@H]1N=C(N)N [Peramivir, peramivir] | 301 | 14 | improving the ability | – | – | – | – | –
O=C1c2c(O)c(=O)ccn2N([C@@H]2c3ccccc3SCc3c2ccc(F)c3F)[C@@H]2COCCN12 [Baloxavir, baloxavir] | – | – | – | no effect | • Natural polymorphism • No or little change in EC50 (<3-fold) | • Primary treatment-emergent; associated with diminished virologic response in clinical settings • Rarely as natural polymorphism • Confers elevated baloxavir EC50 in cell culture (11–614-fold) | • Most are natural polymorphisms • Some emerged post baloxavir exposure or introduced for assessment • Confer variably elevated baloxavir EC50 (<3–19 fold) | no effect
CCOC(=O)C1=C[C@@H](OC(CC)CC)[C@H](NC(C)=O)[C@@H](N)C1 [Oseltamivir, oseltamivir] | – | – | improving the ability | – | – | – | – | –
